US10046000B2, “Use of 2-methylene-19-nor-(20S)-1α,25-Dihydroxyvitamin D3 to treat and prevent secondary hyperparathyroidism in a subject having renal failure” (Wisconsin Alumni Research Foundation, priority 2012, dated 2018)
Where two headings read alike, the source gives them in different places.

What was measured:
bovine parathyroid cells = conditions: cited from earlier work; for suppression of PTH secretion compared with 1,25-(OH)2D3: cultured bovine parathyroid cells
serum calcium = conditions: rat, in vivo; cited from earlier work
[1] = test system: rats with renal insufficiency; conditions: four times during eight days, cited from earlier work
[2] = test system: MRL/MpJ-FAS^lpr (MRL/pr) mouse model; conditions: 300 ng per day through the diet; cited from earlier work
[3] = test system: intestinal calcium transport; conditions: in vivo; cited from earlier work
uremic rat model [4] = format: in vivo; conditions: for effect on serum phosphorus levels: nephrectomized rats
From the text: (§1) Nephrectomy Rat Model. Disease Induction. Weanling, male Sprague-Dawley rats were obtained from Harlan (Madison, Wis.). Following a 10-13 day acclimation period, the animals had two-thirds of one kidney removed. After a week, the other entire kidney was removed. The animals were then switched from a chow diet to a purified rodent diet (Suda et al., Purified Rodent Diet-Diet 11) containing 0.6% Ca and 0.9% phosphorus and fat soluble vitamins A, D, E and K. Water and diet were provided ad libitum.
(§2) Animal Husbandry. Animals were housed in suspended, plastic shoe-box style cages with corn cob bedding (prior to surgery) or in stainless steel, wire-bottom cages (approximately one week after surgery). The animal rooms were maintained at a temperature of 68 to 72° F. and a relative humidity of 25 to 75%. The holding rooms were set to provide 12 hours of light per day.
(§3) Treatment Groups. Approximately four weeks after the second surgery, animals were assigned to treatment groups (14-15 animals/group) so that each group had the same average PTH level.
(§4) Dose Preparation (Vehicle Formulation). The negative control material was prepared by volumetrically measuring ethanol (5%) and Neobee oil, mixing and then placing in storage at 2 to 8° C.
Dose Preparation (2MD Formulation). 2MD formulations (DP001, Sigma Aldrich Fine Chemicals, Madison, Wis.) were prepared by first determining the concentration of an ethanol stock solution using UV spectrophotometry (extinction coefficient=42,000; λmax=252 nm). The solutions were then volumetrically added to Neobee oil so that there was no more than 5% ethanol in the final solution. If necessary, additional ethanol was added to bring the final ethanol amount to 5%. The solution was mixed and stored at 2 to 8° C.
Dose Administration Method. Both vehicle and 2MD were administered orally to the back of the tongue at 0.5 ml/kg body weight once daily for 8 weeks, or intraperitoneally three times per week for 4 weeks.
Serum Parathyroid Hormone (PTH) Levels. By “serum PTH levels” we mean the amount of PTH released by the parathyroid gland. PTH is the most important regulator of the body's calcium and phosphorus levels, and is controlled by the level of calcium in the blood. Low blood calcium levels cause increased PTH to be released, while high blood calcium levels inhibit PTH release. Normal values are 10-55 picograms per milliliter ([…]). Four weeks after surgery and 4 and 8 weeks after treatment initiation, blood was collected from the tail artery and the concentration of bioactive serum PTH was measured using the rat BioActive Intact PTH ELISA Kit from Immutopics, Inc. (San Clemente, Calif.).
Serum Calcium Analysis. Four weeks following surgery and 4 and 8 weeks after treatment started, blood was collected from the tail artery of each experimental animal. The blood was allowed to coagulate at room temperature and then centrifuged at 3000×g for 15 minutes. The serum was transferred to a polypropylene tube and stored frozen at −20° C. The level of calcium was determined by diluting the serum into 0.1% lanthum chloride and measuring the absorbance on an atomic absorption spectrophotometer (Perkin Elmer Model 3110, Shelton, Conn.).
Phosphorus Assay. Four weeks after surgery and 8 weeks after treatment started, blood was collected from the tail artery of each experimental animal. The blood was allowed to coagulate at room temperature and then centrifuged at 3000×g for 15 minutes. The serum was transferred to a polypropylene tube and stored frozen at −20° C. The level of phosphorus was determined using a clinical analyzer (Pentra 400, Horiba ABX Diagnostics—France; UV method using phosphomolybdate).
Creatinine Assay. Measuring serum creatinine levels is a useful and inexpensive method of evaluating renal dysfunction. Creatinine is a non-protein waste product of phosphocreatinine metabolism by skeletal muscle tissue. Creatinine production is continuous and is proportional to muscle mass. […]

postmenopausal women = test: Phase 1B trial, oral administration of 2MD to postmenopausal women; format: in vivo, human; conditions: for reduction of serum PTH levels: oral
[5] = test system: bone calcium mobilization; conditions: in vivo; cited from earlier work
uremic rat model [6] = test: Uremic rat model, intraperitoneal (ip) administration of 2MD; format: in vivo
From the text: as §1, §2, §3, §4
Dose Preparation (2MD Formulation). 2MD formulations (DP001, Sigma Aldrich Fine Chemicals, Madison, Wis.) were prepared by first determining the concentration of an ethanol stock solution using UV spectrophotometry (extinction coefficient=42,000; λmax=252 nm). […]
Serum Parathyroid Hormone (PTH) Levels. […] Four weeks after surgery and 4 and 8 weeks after treatment initiation, blood was collected from the tail artery and the concentration of bioactive serum PTH was measured using the rat BioActive Intact PTH ELISA Kit from Immutopics, Inc. (San Clemente, Calif.).
Serum Calcium Analysis. […] The level of calcium was determined by diluting the serum into 0.1% lanthum chloride and measuring the absorbance on an atomic absorption spectrophotometer (Perkin Elmer Model 3110, Shelton, Conn.). […]

uremic dogs = conditions: cited from earlier work
uremic rats = conditions: cited from earlier work
PTH mRNA = conditions: in vivo; cited from earlier work

In the case of `C=C1/C(=C\C=C2/CCC[C@]3(C)C([C@H](C)CC#CC(C)(C)O)=CC[C@@H]23)C[C@@H](O)C[C@@H]1O` [1,25-(OH)2-16-ene-23-yne-D3], the “suppression of PTH secretion compared with 1,25-(OH)2D3” value (bovine parathyroid cells) is listed as “nearly as effective as 1,25-(OH)2D3”.

For `C=C1C(=CC=C2CCCC3(C)C2CCC3C(C)CCCCCC(C)(C)O)CC(O)CC1O` (stereo not drawn) [1,25-(OH)2-24-dihomo-D3], the “suppression of PTH secretion compared with 1,25-(OH)2D3” value (bovine parathyroid cells) is given as “nearly as effective as 1,25-(OH)2D3”.

For `C=C1C(=CC=C2CCCC3(C)C2CCC3C(C)C=CCCCCC(C)(C)O)CC(O)CC1O` (stereo not drawn) [1,25-(OH)2-24-trihomo-22-ene-D3], the “suppression of PTH secretion compared with 1,25-(OH)2D3” value (bovine parathyroid cells) is given as “nearly as effective as 1,25-(OH)2D3”.

In the case of `C=C1/C(=C\C=C2/CCC[C@]3(C)[C@@H]([C@H](C)CCCC(C)(C)O)CC[C@@H]23)C[C@@H](O)C[C@@H]1O` [1,25-(OH)2D3, 1α,25-dihydroxyvitamin D3], the “dose that increased serum calcium to the same magnitude” value (serum calcium) is listed as 10 ng/rat/10 days, the “effect on serum calcium and phosphorus” value ([1]; 8 ng dose) is listed as “induced hypercalcemia and hyperphosphatemia” and the “effect on pre-pro-PTH mRNA and PTH secretion” value ([1]; 2, 4 and 8 ng) is listed as “suppressed pre-pro-PTH mRNA and PTH secretion”. The “dose at which the decrease of pre-pro-PTH mRNA and PTH secretion was statistically significant” value [1] was 8 ng, the hypercalcemia [2] was “severe hypercalcemia always accompanied this treatment” and the proteinuria [2] was “completely prevents proteinuria”.

In the case of `C=C1[C@H](O)CC(=C/C=C2\CCC[C@@]3(C)C2CCC3[C@@H](C)CCCC(C)(C)O)C[C@H]1O` (stereo partly drawn) [2MD, 2-methylene-19-nor-(20S)-1α,25-dihydroxyvitamin D3], the “intestinal calcium transport activity” value [3] is given as “modest increase in intestinal calcium transport activity”, the “doses at which clinically significant serum calcium increases are observed” value (uremic rat model [4]; male, Sprague-Dawley, rat, in vivo, po, 8 weeks) is given as 5 ng/kg bw and the “effect on serum PTH levels” value (uremic rat model [4]; oral, daily doses of 1-5 ng/kg bw, FIG. 5) is given as “prevented an increase or effected a reduction in serum PTH levels”. For the same molecule, the “serum creatinine levels compared to Vehicle control animals” value (uremic rat model [4]; oral, daily doses of 1-5 ng/kg bw, FIG. 11) was “resulted in lower serum creatinine levels”, the “effect on serum phosphorus levels” value (uremic rat model [4]; oral, daily doses of 1-5 ng/kg bw, FIG. 9) was “reduced serum phosphorus levels” and the serum calcium levels (postmenopausal women; 400 ng per day) was “maintaining serum calcium levels within the physiologically normal range”. For the same molecule, the “reduction in serum PTH levels” value (postmenopausal women; 400 ng per day, FIG. 13) was greater than 60%, the “reduction of serum PTH levels” value (postmenopausal women; 110 ng once daily for 28 days) was 21% and the “reduction of serum PTH levels” value (postmenopausal women; 440 ng once daily for 28 days) was 67%. For the same molecule, the “bone calcium mobilization activity” value [5] was 10-100 times that of 1α,25-(OH)2D3, the “dose at which serum calcium levels were raised” value (uremic rat model [6]; ip three times per week, FIG. 3) was 10 ng/kg bw and the “effect on serum PTH” value (uremic rat model [6]; ip, 5 ng/kg bw three times per week, FIG. 2) was “prevented increases in serum PTH”. The “effect on circulating PTH levels” value (uremic rat model [6]; ip, 10 ng/kg bw three times per week, FIG. 2) was “suppresses circulating PTH levels”.

For `C=C1/C(=C\C=C2/CCC[C@]3(C)[C@@H]([C@H](C)OCCC(C)(C)O)CC[C@@H]23)C[C@@H](O)C[C@@H]1O` [22-oxacalcitriol], the “serum PTH” value (uremic dogs) is listed as “suppress serum PTH”, the “serum PTH” value (uremic rats) is listed as “suppress serum PTH” and the “suppression of PTH secretion compared with 1,25-(OH)2D3” value (bovine parathyroid cells) is listed as “nearly as effective as 1,25-(OH)2D3”. The “suppression of PTH mRNA” value (PTH mRNA) was “could suppress PTH mRNA”.

For `C[C@H](/C=C/[C@H](C)C(C)(C)O)[C@H]1CC[C@H]2/C(=C/C=C3C[C@@H](O)C[C@H](O)C3)CCC[C@]12C` [Zemplar®, 19-nor-1α,25-dihydroxy-ergocalciferol], the “dose that increased serum calcium to the same magnitude” value (serum calcium) is listed as 100 ng/rat/10 days, the “suppression on PTH release” value (bovine parathyroid cells; 10^−7M) is listed as 52% and the “changes in serum ionized calcium or serum phosphorus” value ([1]; 8, 25 and 75 ng) is listed as “none of the doses of 19-nor-1,25-(OH)2D2 produced statistically significant changes”. For the same molecule, the “serum creatinine levels compared to Vehicle control animals” value (uremic rat model [4]; oral Zemplar) was “lowered serum creatinine levels compared to Vehicle control animals, however, only at dose levels that significantly increased serum calcium”, the “effect on serum phosphorus levels” value (uremic rat model [4]; oral Zemplar) was “did not reduce serum phosphorus levels” and the “duration of the effect on serum PTH” value (uremic rat model [4]; oral daily treatment for up to 8 weeks) was “the therapeutic effect was lost as the disease progressed”. For the same molecule, the “effect on serum PTH levels” value (uremic rat model [4]; oral, daily doses of 30-300 ng/kg bw, FIG. 6) was “prevented an increase in serum PTH levels”.
